In patent US20180311342A1, “IMMUNOSTIMULATING AGENT” (AJINOMOTO CO., INC., priority 2017, published 2018):

How the values were obtained:
Type in all cases: in vivo, BALB/c mice
[1] = tested on: anti-OVA-specific IgG2a subclass antibody; test: Adjuvant activity test: anti-OVA-specific IgG2a subclass antibody in serum of OVA-immunized mice (ELISA); settings: after secondary immunization, serum 2 weeks later; OVA 5 μg + compound 0.256 μmol in 5% αCD-added saline (Addavax mixed with saline at 1:1), dorsal-subcutaneous; compared to OVA single administration group
Method: (§1) 8-Week-old female BALB/c mice were divided into groups (N=6), and each group was primarily immunized by dorsal-subcutaneous administration of (1) ovalbumin (OVA) (5 μg) dissolved in saline as an antigen (OVA single administration group), (2) OVA 5 μg and Addavax™ (mixed with saline at 1:1) dissolved in saline (Addavax™ administration group) as positive control adjuvant, (3) OVA 5 μg and SZ137 0.256 μmol dissolved or dispersed in 5% α-cyclodextrin (hereinafter to be simply referred to as αCD)-added saline (SZ137 administration group), (4) OVA (5 μg) and SZ138 (0.256 μmol) dissolved or dispersed in 5% αCD-added saline (SZ138 administration group), (5) OVA (5 μg) and SZ142 (0.256 μmol) dissolved or dispersed in 5% αCD-added saline (SZ142 administration group), (6) OVA (5 μg) and SZ144 (0.256 μmol) dissolved or dispersed in 5% αCD-added saline (SZ144 administration group), (7) OVA (5 μg) and SZ145 (0.256 μmol) dissolved or dispersed in 5% αCD-added saline (SZ145 administration group), (8) OVA (5 μg) and SZ146 (0.256 μmol) dissolved or dispersed in 5% αCD-added saline (SZ146 administration group), (9) OVA (5 μg) and SZ147 (0.256 μmol) dissolved or dispersed in 5% αCD-added saline (SZ147 administration group), (10) OVA (5 μg) and SZ148 (0.256 μmol) dissolved or dispersed in 5% αCD-added saline (SZ148 administration group), each per mouse. Two week later, the secondary immunization was carried out by dorsal-subcutaneous administration of solutions or dispersions similar to those of the above-mentioned (1)-(10) again. Two weeks from the secondary immunization, the whole blood was extracted under anesthesia, and the obtained serum sample was measured for anti-OVA-specific IgG1 subclass antibody, anti-OVA-specific IgG2a subclass antibody, and anti-OVA-specific IgE antibody.
(§2) The measurement method of the anti-OVA-specific IgG1 subclass antibody and anti-OVA-specific IgG2a subclass antibody in Experimental Example 1 and the following Experimental Examples 2-10 is as follows.
(§3) To a 96 well plate was added 5 μg/ml OVA at 100 µl/well, and the mixture was incubated at 4° C. overnight. After incubation, the mixture was washed three times with 200 μl of PBS-T (PBS (phosphate buffered saline)+0.05% (v/v) Tween 20) per well, and blocked with 100 μl of 5% FCS (fetal calf serum)/PBS solution per well at room temperature for 1-2 hr. Thereafter, the mixture was washed three times with PBS-T (200 μl/well), a diluted serum sample (100 l/well) or the same amount of 5% FCS/PBS solution as a control was added, and the mixture was incubated at 37° C. for 1 hr. To calculate concentration of the antibody, the standard of an anti-OVA-specific IgG1 subclass antibody diluted with 2% FCS/PBS solution was added at 100 ng/ml, 50 ng/ml, 25 ng/ml, 12.5 ng/ml, 6.25 ng/ml, 3.125 ng/ml, 1.56 ng/ml, 0.781 ng/ml, 0.391 ng/ml, 0.195 ng/ml, 0.098 ng/ml, 0 ng/ml, per 1 well. When an anti-OVA-specific IgG2a subclass antibody was measured, the standard of an anti-OVA-specific IgG2a subclass antibody was added at 50 ng/ml, 25 ng/ml, 12.5 ng/ml, 6.25 ng/ml, 3.125 ng/ml, 1.56 ng/ml, 0.781 ng/ml, 0.391 ng/ml, 0.195 ng/ml, 0.098 ng/ml, 0.049 ng/ml, 0 ng/ml, per 1 well. Thereafter, similar to the samples, the mixture was washed five times with PBS-T (200 μl/well), a diluted biotinylated anti-mouse IgG1 antibody and IgG2a antibody were added (100 μl/well), and the mixture was incubated at 37° C. for 45 min. Thereafter, the mixture was washed five times with PBS-T (200 μl/well), a diluted anti-biotin-HRP antibody was added (100 μl/well), and the mixture was incubated at 37° C. for another 30 min. Thereafter, the mixture was washed five times with PBS-T (200 μl/well), TMB substrate solution was added (100 μl/well), and the mixture was incubated at room temperature for 10-15 min. Thereafter, a reaction quenching liquid (2N sulfuric acid solution) was added (50 l/well) to discontinue a color developing reaction, and the absorbance (OD Value=450 nm) was measured by a microplate reader. […]

[2] = tested on: anti-OVA-specific IgE antibody; test: Allergy inducing activity test: anti-OVA-specific IgE antibody in serum of OVA-immunized mice (DS mouse IgE ELISA (OVA) kit)
Method: as §1
The measurement method of the anti-OVA-specific IgE antibody in Experimental Example 1 and the following Experimental Examples 2-5, 8-10 is as follows.
DS mouse IgE ELISA (OVA) kit manufactured by DS Pharma Biomedical Co., Ltd. was used. The protocol is briefly shown below.
The serum sample and a standard reagent for drawing an analytical curve are diluted with a buffer and, after stirring, left standing at room temperature for 10 min. The sample and the standard solution are added to a plate bound with an IgE capture antibody in advance and, after stirring, the mixture is left standing at room temperature for 60 min. The mixture is washed three times with wash, HRP-labeled OVA is added, and the mixture is left standing at room temperature for 30 min. The mixture is washed three times with wash, a substrate solution is added, and the mixture is left standing in dark at room temperature for 30 min. A reaction quenching liquid is added, the mixture is stirred, and the absorbance (OD Value=450 nm) is immediately measured.
The standard used is one attached to the kit, the standard curve is drawn from the measured OD Value, and the concentration is calculated. […]

[3] = tested on: anti-OVA-specific IgG1 subclass antibody; test: Adjuvant activity test: anti-OVA-specific IgG1 subclass antibody in serum of OVA-immunized mice (ELISA); settings: after secondary immunization, serum 2 weeks later; OVA 5 μg + compound 0.256 μmol in 5% αCD-added saline (Addavax mixed with saline at 1:1), dorsal-subcutaneous; compared to OVA single administration group
Method: as §1, §2, §3

`CCCCCCCCCCCCCCCCCC(=O)N[C@@H](CCCNC(=N)N)C(=O)NCCCCCCCCCCCC.Cl` [SZ137, N-[(1S)-1-(dodecylcarbamoyl)-4-guanidino-butyl]octadecanamide hydrochloride] was tested, and the “anti-OVA-specific IgG2a subclass antibody production” value [1] was “significantly increased”, the “anti-OVA-specific IgE antibody production” value ([2]; after secondary immunization, OVA 5 μg + compound 0.256 μmol in 5% αCD-added saline (Addavax mixed with saline at 1:1), dorsal-subcutaneous, compared to OVA single administration group) was “an increase in the anti-OVA-specific IgE antibody production was not observed” and the “allergy inducing activity as compared to Addavax” value ([2]; conclusion from IgE after secondary immunization, compound in 5% αCD-added saline) was “may have a lower allergy inducing activity”. The “anti-OVA-specific IgG1 subclass antibody production” value [3] was “significantly increased”.
